From patent US20260357306A1, “ONE-POT FERMENTATIVE PRODUCTION OF GLYCOLATE OR OTHER HYDROXYCARBOXYLIC ACIDS” (PHYCUS BIOTECHNOLOGIES INC., priority 2023, published 2026)

Key:
Assay type in all cases: biochemical
[1] = biological target: Mycobacterium marinum alcohol dehydrogenase mmaADH, SEQ ID NO: 215 (Mycobacterium marinum, UniProt B2HH60); assay: Alcohol dehydrogenase (EG oxidation) Michaelis-Menten kinetics, mmaADH; details: role: substrate; relative to goxADH
Excerpt: (§1) Enzyme expression and purification: The enzymes of interest were genetically engineered in the E. coli BL21 (DE3) strain on a high copy plasmid under control of the T7 promoter. The enzymes were tagged with a hexahistidine (His-tag) sequence to facilitate for purification. Post-expression, the His-tagged enzymes were selectively bound to a nickel-charged immobilized metal affinity chromatography (IMAC) resin, exploiting the high affinity between histidine residues and nickel ions. Upon washing away non-specifically bound proteins, the His-tagged enzymes were eluted with an imidazole-containing buffer and subsequently used for enzymatic assays.
(§2) Enzyme assays: Standard enzyme characterization protocols were performed to determine the activities of the enzymes. Dehydrogenase activity against the substrates was determined using a continuous assay following the increase in absorbance at 340 nm ε340 (NADH)=6.22 mM^−1. cm^−1, and ε340 (NADPH)=6.2 mM^−1·cm^−1]. […]
(§3) The candidate alcohol dehydrogenase enzymes were next characterized for their enzymatic activity. […] Reactions were initiated by the addition of the purified enzyme and enzymatic activity was measured by monitoring the formation of the product (glycolaldehyde) over time as described in Example 8.1. […]

[2] = biological target: T1, Gluconobacter oxydans alcohol dehydrogenase goxADH (Gox0313), SEQ ID NO: 206 (Gluconobacter oxydans, UniProt Q5FU50); assay: Alcohol dehydrogenase (EG oxidation) Michaelis-Menten kinetics, goxADH; details: role: substrate; relative to goxADH
T1 sequence (Q5FU50 1-343): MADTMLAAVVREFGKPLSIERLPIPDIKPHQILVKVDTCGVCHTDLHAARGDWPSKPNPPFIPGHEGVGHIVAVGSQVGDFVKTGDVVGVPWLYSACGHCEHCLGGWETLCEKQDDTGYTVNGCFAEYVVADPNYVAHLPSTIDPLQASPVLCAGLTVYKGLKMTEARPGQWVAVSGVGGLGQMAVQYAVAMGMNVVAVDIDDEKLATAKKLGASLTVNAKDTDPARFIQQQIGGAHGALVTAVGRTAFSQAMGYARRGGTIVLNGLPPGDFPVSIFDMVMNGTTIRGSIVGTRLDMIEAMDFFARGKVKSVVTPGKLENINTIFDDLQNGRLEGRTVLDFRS
Excerpt: as §1, §2, §3

[3] = biological target: T2, Gluconobacter morbifer alcohol dehydrogenase gmoADH, SEQ ID NO: 207 (Gluconobacter morbifer, UniProt G6XLF0); assay: Alcohol dehydrogenase (EG oxidation) Michaelis-Menten kinetics, gmoADH; details: role: substrate
T2 sequence (G6XLF0 1-343): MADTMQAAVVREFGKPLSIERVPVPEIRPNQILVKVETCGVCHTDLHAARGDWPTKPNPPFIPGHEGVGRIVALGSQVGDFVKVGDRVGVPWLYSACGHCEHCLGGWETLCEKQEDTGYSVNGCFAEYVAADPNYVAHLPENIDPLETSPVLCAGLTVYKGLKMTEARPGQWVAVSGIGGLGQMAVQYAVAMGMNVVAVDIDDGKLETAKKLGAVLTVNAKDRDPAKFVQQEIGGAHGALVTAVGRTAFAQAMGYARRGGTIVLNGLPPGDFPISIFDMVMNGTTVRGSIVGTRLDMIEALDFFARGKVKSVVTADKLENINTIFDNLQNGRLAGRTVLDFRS
Excerpt: as §1, §2, §3

[4] = biological target: T3, Gluconobacter diazotrophicus alcohol dehydrogenase gdiADH, SEQ ID NO: 208 (Gluconacetobacter diazotrophicus, UniProt A9HNA5); assay: Alcohol dehydrogenase (EG oxidation) Michaelis-Menten kinetics, gdiADH; details: role: substrate
T3 sequence (A9HNA5 1-354): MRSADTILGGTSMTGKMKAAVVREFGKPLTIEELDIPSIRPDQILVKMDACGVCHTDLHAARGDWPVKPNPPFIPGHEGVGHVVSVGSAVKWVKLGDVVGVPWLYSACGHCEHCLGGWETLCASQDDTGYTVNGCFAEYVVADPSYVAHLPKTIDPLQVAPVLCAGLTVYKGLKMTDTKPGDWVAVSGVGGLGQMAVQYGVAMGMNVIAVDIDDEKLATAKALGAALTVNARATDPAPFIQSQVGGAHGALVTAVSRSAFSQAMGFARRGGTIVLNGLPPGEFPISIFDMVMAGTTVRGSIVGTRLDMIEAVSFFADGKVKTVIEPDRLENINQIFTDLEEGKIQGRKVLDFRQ
Excerpt: as §1, §2, §3

[5] = biological target: Moraxella sp. (strain TAE123) alcohol dehydrogenase mtaADH, SEQ ID NO: 209 (Moraxella sp. TAE123, UniProt Q8GIX7); assay: Alcohol dehydrogenase (EG oxidation) Michaelis-Menten kinetics, mtaADH; details: role: substrate; relative to goxADH
Chain of Moraxella sp. (strain TAE123) alcohol dehydrogenase mtaADH, SEQ ID NO: 209 (Q8GIX7 whole entry): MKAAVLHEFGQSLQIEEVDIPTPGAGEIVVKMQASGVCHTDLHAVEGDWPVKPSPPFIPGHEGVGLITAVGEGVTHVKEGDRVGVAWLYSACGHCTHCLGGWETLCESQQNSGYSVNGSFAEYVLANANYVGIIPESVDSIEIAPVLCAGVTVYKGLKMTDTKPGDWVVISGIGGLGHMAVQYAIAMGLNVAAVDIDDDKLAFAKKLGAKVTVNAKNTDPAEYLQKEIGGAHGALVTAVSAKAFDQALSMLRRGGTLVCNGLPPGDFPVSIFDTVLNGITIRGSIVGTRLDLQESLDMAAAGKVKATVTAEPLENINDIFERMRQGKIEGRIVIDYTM
Excerpt: as §1, §2, §3

Chain of Mycobacterium marinum alcohol dehydrogenase mmaADH, SEQ ID NO: 215 (B2HH60 entry or part of it): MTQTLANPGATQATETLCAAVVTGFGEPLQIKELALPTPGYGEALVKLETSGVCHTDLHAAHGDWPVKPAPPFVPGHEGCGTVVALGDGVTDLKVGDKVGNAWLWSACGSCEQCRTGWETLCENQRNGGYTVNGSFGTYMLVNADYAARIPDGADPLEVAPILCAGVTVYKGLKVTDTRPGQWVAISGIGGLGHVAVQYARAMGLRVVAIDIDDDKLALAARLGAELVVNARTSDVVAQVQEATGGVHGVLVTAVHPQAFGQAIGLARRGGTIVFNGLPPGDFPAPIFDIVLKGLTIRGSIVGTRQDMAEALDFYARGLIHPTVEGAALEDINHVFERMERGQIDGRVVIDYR

OCCO [ethylene glycol]
Relative Vmax [1]: 1.1 | Relative Vmax [2]: 1.0 | Relative Vmax ([3]; relative to goxADH): 2.5 | maximum catalytic rate (EG turnover rate), fold higher than goxADH ([3]; versus goxADH): 2.5 fold | Relative Vmax ([4]; relative to goxADH): 3.8 | maximum catalytic rate (EG turnover rate), fold higher than goxADH ([4]; versus goxADH): 3.8 fold | Relative Vmax [5]: 1.6
